The nature of one data set: Kinetic solubility. The format is physicochemical. As to conditions: kinetic from dmso stock, buffered aqueous solution at pH=7.4, 10 μL of 10 mM DMSO solution in 1 mL, stirred 4 hours, supernatant by liquid chromatography, read-out: Kin. Solub. The protocol:
To a buffered aqueous solution at pH=7.4 (1 mL), a 10 mM DMSO solution of the test compound (10 μL) was added and the mixture stirred for 4 hours. After centrifugation, the compound concentration in the supernatant was determined by liquid chromatography by fitting in a calibration curve of the compound.

A further data set deals with T1, human sigma 1 receptor (Homo sapiens, UniProt Q99720).
T1 construct: expressed in transfected cells; host or cells: HEK-293
T1 sequence (Q99720 whole entry): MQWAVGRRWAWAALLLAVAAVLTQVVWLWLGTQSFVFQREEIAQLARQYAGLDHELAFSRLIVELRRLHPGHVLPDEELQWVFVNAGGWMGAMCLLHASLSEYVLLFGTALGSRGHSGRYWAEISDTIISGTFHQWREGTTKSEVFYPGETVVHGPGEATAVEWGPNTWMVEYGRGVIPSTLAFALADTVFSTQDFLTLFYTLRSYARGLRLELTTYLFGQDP
As to the kind of experiment: Human sigma 1 receptor radioligand assay ([3H](+)-pentazocine, transfected HEK-293 membranes). Type of data set: binding. The protocol: Human Sigma 1 Receptor Radioligand Assay
The assay was carried out with 7 μg of membrane suspension, 5 nM of [^3H](+)-pentazocine in either absence or presence of either buffer or 10 μM Haloperidol for total and non-specific binding, respectively. Binding buffer contained Tris-HCl 50 mM at pH 8. Plates were incubated at 37° C. for 120 minutes. After the incubation period, the reaction mix was then transferred to MultiScreen HTS, FC plates (Millipore), filtered and plates were washed 3 times with ice-cold 10 mM Tris-HCL (pH7.4). Filters were dried and counted at approximately 40% efficiency in a MicroBeta scintillation counter (Perkin-Elmer) using EcoScint liquid scintillation cocktail.

[1] abbreviates: 5 nM [3H](+)-pentazocine, transfected HEK-293 membranes, 37° C., 120 minutes, read-out: Ki.
Setting [2] is: buffered aqueous solution, pH 7.4, aqueous buffer.

Where two headings read alike, the source gives them in different places.

What is called Ki is the dissociation constant of the complex between target and ligand, obtained from inhibition or displacement. As to `Cl.Fc1ccc(CN2C[C@@H]3[C@@H](C2)OCc2c(-c4ccccc4F)nnn23)cn1` [Example 11, (5aR,8aR)-3-(2-fluorophenyl)-7-((6-fluoropyridin-3-yl)methyl)-4,5a,6,7,8,8a-hexahydropyrrolo[3,4-b][1,2,3]triazolo[1,5-d][1,4]oxazine hydrochloride], the solubility at 4 h in “Kinetic solubility” (aqueous buffer) is more than 10 µM. Also, on human sigma 1 receptor (setting [1]), the inhibition constant (Ki) was found to be 241 nM.
Take `Cl.Fc1ccccc1-c1nnn2c1CO[C@H]1CN(C[C@H]3CCOC3)C[C@@H]12` [Example 15, (5aS,8aS)-3-(2-fluorophenyl)-7-(((R)-tetrahydrofuran-3-yl)methyl)-4,5a,6,7,8,8a-hexahydropyrrolo[3,4-b][1,2,3]triazolo[1,5-d][1,4]oxazine hydrochloride]: the solubility at 4 h in “Kinetic solubility” (setting [2]) was more than 10 µM. At human sigma 1 receptor (setting [1]), the Ki amounted to 29.7 nM.
Regarding `Cl.Fc1ccccc1-c1nnn2c1CO[C@@H]1CN(C[C@@H]3CCOC3)C[C@H]12` [Example 16, (5aR,8aR)-3-(2-fluorophenyl)-7-(((S)-tetrahydrofuran-3-yl)methyl)-4,5a,6,7,8,8a-hexahydropyrrolo[3,4-b][1,2,3]triazolo[1,5-d][1,4]oxazine hydrochloride], the solubility at 4 h in the data set “Kinetic solubility” (setting [2]) was more than 10 µM. For the same molecule, the inhibition constant (Ki) at human sigma 1 receptor (setting [1]) came out at 97.6 nM.
On the same counts, the results for `Cl.Fc1ccccc1-c1nnn2c1CO[C@H]1CN(C[C@@H]3CCOC3)C[C@@H]12` [Example 17, (5aS,8aS)-3-(2-fluorophenyl)-7-(((S)-tetrahydrofuran-3-yl)methyl)-4,5a,6,7,8,8a-hexahydropyrrolo[3,4-b][1,2,3]triazolo[1,5-d][1,4]oxazine hydrochloride] are more than 10 µM and 49.2 nM.
For the molecule `Cl.Fc1ccccc1-c1nnn2c1CO[C@@H]1CN(C[C@H]3CCOC3)C[C@H]12` [Example 18, (5aR,8aR)-3-(2-fluorophenyl)-7-(((R)-tetrahydrofuran-3-yl)methyl)-4,5a,6,7,8,8a-hexahydropyrrolo[3,4-b][1,2,3]triazolo[1,5-d][1,4]oxazine hydrochloride], the solubility at 4 h in the data set “Kinetic solubility” (setting [2]) is more than 10 µM. Moreover, the Ki at human sigma 1 receptor (setting [1]) stood at 171 nM.
In the same order, the values of `CCOc1ccc(CN2C[C@@H]3[C@@H](C2)OCc2c(-c4ccccc4F)nnn23)cn1.Cl` [Example 19, (5aR,8aR)-7-((6-ethoxypyridin-3-yl)methyl)-3-(2-fluorophenyl)-4,5a,6,7,8,8a-hexahydropyrrolo[3,4-b][1,2,3]triazolo[1,5-d][1,4]oxazine hydrochloride] are more than 10 µM and 83.3 nM.
In the same order, the values of `Cc1cc(CN2C[C@@H]3OCc4c(-c5ccc(F)cc5F)nnn4[C@H]3C2)c(C)o1.Cl` [Example 22, (5aS,8aS)-3-(2,4-difluorophenyl)-7-((2,5-dimethylfuran-3-yl)methyl)-4,5a,6,7,8,8a-hexahydropyrrolo[3,4-b][1,2,3]triazolo[1,5-d][1,4]oxazine hydrochloride] are more than 10 µM and 119 nM.
With `Cc1cc(CN2C[C@@H]3[C@@H](C2)OCc2c(-c4ccc(F)cc4F)nnn23)c(C)o1.Cl` [Example 23, (5aR,8aR)-3-(2,4-difluorophenyl)-7-((2,5-dimethylfuran-3-yl)methyl)-4,5a,6,7,8,8a-hexahydropyrrolo[3,4-b][1,2,3]triazolo[1,5-d][1,4]oxazine hydrochloride], the solubility at 4 h in the data set “Kinetic solubility” (setting [2]) is more than 10 µM. Moreover, on human sigma 1 receptor (setting [1]), the Ki came out at 41.9 nM.
As for `Cl.Fc1ccc(-c2nnn3c2CO[C@H]2CN(C4CCOCC4)C[C@@H]23)c(F)c1` [Example 27, (5aS,8aS)-3-(2,4-difluorophenyl)-7-(tetrahydro-2H-pyran-4-yl)-4,5a,6,7,8,8a-hexahydropyrrolo[3,4-b][1,2,3]triazolo[1,5-d][1,4]oxazine hydrochloride], the solubility at 4 h in “Kinetic solubility” (setting [2]) was more than 10 µM. The Ki at human sigma 1 receptor (setting [1]) was found to be 20.4 nM.
As to `Cl.c1ccc(-c2nnn3c2CO[C@H]2CN(C4CCOCC4)C[C@@H]23)nc1` [Example 31, (5aS,8aS)-3-(pyridin-2-yl)-7-(tetrahydro-2H-pyran-4-yl)-4,5a,6,7,8,8a-hexahydropyrrolo[3,4-b][1,2,3]triazolo[1,5-d][1,4]oxazine hydrochloride], the solubility at 4 h in the data set “Kinetic solubility” (aqueous buffer) is more than 10 µM. The Ki at human sigma 1 receptor is 241 nM.
